Measured values from PubChem BioAssay AID1322 (NMMLSC, 2008).
Activity calls are given as the source filed them. The rule behind the calls is not given here.

Biological target: Bcl-2-like protein 1 (Homo sapiens) (UniProt Q07817)
Assay: Bcl-XL binding to Bim peptide disruption – biochemical, multiplexed, bead flow cytometry, human Bcl-XL, dose response (AID 1322); for inhibition: test concentration not given here
Conditions: Bead-based flow cytometry, MCF; for inhibition: stronger effect = higher value

Bcl-2-like protein 1 (Homo sapiens), sequence (Q07817 whole entry, looked up): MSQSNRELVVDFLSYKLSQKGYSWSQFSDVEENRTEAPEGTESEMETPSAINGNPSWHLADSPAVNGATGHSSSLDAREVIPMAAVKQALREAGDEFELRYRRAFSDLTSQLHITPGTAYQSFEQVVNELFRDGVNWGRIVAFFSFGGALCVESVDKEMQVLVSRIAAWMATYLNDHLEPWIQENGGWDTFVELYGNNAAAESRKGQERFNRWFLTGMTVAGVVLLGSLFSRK

SMILES | inhibition | other results
Cc1cc(-c2nn(-c3ccccc3)cc2/C=C2\SC(N)=NC2=O)ccc1OC(C)C | inactive | –
Cc1ccc(N=c2ssnc2Cl)cc1 | inactive | –
Cc1ccc(C(=O)N/N=C2/NC(=O)CC(C(=O)Nc3ccccc3)S2)cc1 (stereo unspecified) | inactive | –
O=C(c1cc(=O)c2ccccc2o1)N1CCN(c2ccccc2F)CC1 | inactive | –
CCOc1cccc(CNc2ccc(O)cc2)c1OCc1ccc(Cl)cc1 | inactive | –
CCn1c(SCC(=O)Nc2ccccc2-c2ccccc2)nnc1-c1ccoc1C | inactive | –
CCN1CCN(c2cc(C)c3cc(NC(=S)N4CCN(c5ccc(F)cc5)CC4)ccc3n2)CC1 | inactive | –
N#Cc1cc(-c2ccccc2)nn1-c1ccccc1 | inactive | –
O=C(Nc1ccncc1)c1cc2ccccc2o1 | inactive | –
COc1cccc(NC(=O)CSc2nncn2N)c1 | inactive | –
CCOc1ccc(NCc2ccccc2OCc2cccc(F)c2)cc1 | inactive | –
COC(=O)c1c(C(=O)OC)c2cccc3cc(-c4ccccc4)c4ccc1c4n32 | inactive | –
CCOc1cc(/C=N/NC(=O)c2cccs2)cc([N+](=O)[O-])c1O | inactive | –
O=C(Cc1ccccc1)N/N=C/c1cccn1-c1ccc([N+](=O)[O-])cc1 | – | outcome: inactive
CCN(CC)c1ccc(NC(=O)c2cccc(C)c2)cc1S(=O)(=O)Nc1ccccc1OC | inactive | –
CCCn1c(SCC(=O)Nc2ccccc2-c2ccccc2)nnc1-c1ccoc1C | inactive | –
CCCC(=O)OCCNc1cc(Sc2nccn2C)c2nonc2c1[N+](=O)[O-] | inactive | –
C=CCn1c(C)c(C(C)=O)c(N2CCOCC2)nc1=S | inactive | –
c1coc(C2=Nc3cccc4cccc(c34)N2)c1 | inactive | –
O=C(COC(=O)CCCN=C1NS(=O)(=O)c2ccccc21)NC(=O)NC1CCCC1 | inactive | –
COc1ccc(NC(=O)c2c(F)cccc2F)cc1S(=O)(=O)Nc1ccc(Br)cc1 | inactive | –
CCN(CC)c1ccc(Nc2nc(N3CCOCC3)c3ccccc3n2)cc1 | inactive | –

SMILES | inhibition | other results
CC(=O)OCCNc1cc(Sc2nc3ccccc3[nH]2)c2nonc2c1[N+](=O)[O-] | inactive | –
O=C(CC1NCCNC1=O)Nc1cccc([N+](=O)[O-])c1 (stereo unspecified) | – | outcome: inactive
O=C1C(=O)c2ccc(-c3ccccc3)cc2-c2ccccc21 | inactive | –
CN=c1scc(-c2cccs2)n1/N=C/c1ccc(O)c(O)c1O | inactive | –
Cc1cc[n+]2cc(-c3cccc([N+](=O)[O-])c3)c(-c3cccc([N+](=O)[O-])c3)cc2c1 | – | outcome: inactive
O=C1c2ccccc2C(=O)c2cc(S(=O)(=O)Nc3ccccc3)ccc21 | – | outcome: inactive
Cc1ccc(-c2cc(C(=O)N3CCN(c4ncccn4)CC3)c3cc(Br)ccc3n2)o1 | inactive | –
CCN1CCN(c2cc(C)c3cc(NC(=S)N4CC(C)CC(C)C4)ccc3n2)CC1 (stereo unspecified) | inactive | –
COc1cccc(/C=N/Nc2nn3cnnc3c3ccccc23)c1 | – | EC50: inactive
Cc1sc2nc(C(C)C)nc(SCC(=O)N3c4ccccc4CC3C)c2c1C (stereo unspecified) | inactive | –
COc1cc(N2CCOCC2)ccc1C=C1C(=O)NC(=O)NC1=O | inactive | –
CC1(C)Cc2c(ccc3ccccc23)/C(=C/C(=O)N2CCCCC2)N1 | inactive | –
COc1ccc(C(=O)NC(=S)N2CCNC(=O)C2)cc1Br | – | outcome: inactive
COc1cc(/C=C2\S/C(=N/S(=O)(=O)c3ccc(C)cc3)NC2=O)c([N+](=O)[O-])cc1OC | inactive | –
CCN(CC)c1ccc(NC2=C(Cl)C(=O)c3ccccc3C2=O)cc1 | – | outcome: inactive
CN(Cc1ccccc1)c1nc2c(c(=O)[nH]c(=O)n2C)n1C | inactive | –
Nc1ccc(-c2cn3cccnc3n2)cc1 | – | outcome: inactive
O=C(Nc1ccccn1)c1cc2ccccc2o1 | inactive | –
Cc1ccc(C(=O)CCC(=O)Nc2ccc(Cl)c(S(=O)(=O)Nc3cccc(Cl)c3)c2)cc1 | inactive | –
Cc1ccc(C)n1-c1ccc(N2CCOCC2)cc1 | inactive | –
Clc1nssc1=Nc1ccccc1 | inactive | –
O=C(Nc1nnc(C2CC2)s1)C1Cc2ccccc2CN1S(=O)(=O)c1ccccc1F (stereo unspecified) | inactive | –

SMILES | inhibition | other results
Cc1c(Cc2ccccc2)sc(N)c1C(N)=O | inactive | –
CCOC(=O)c1nc(Nc2ccc(N3CCC(C)CC3)cc2)c2ccccc2n1 | – | outcome: inactive
COc1ccc(OC)c(NC(=O)COC(=O)c2cc3c(s2)CCC3)c1 | inactive | –
COc1ccccc1Oc1ccc2c(c1)C(=O)N(c1cccc3ncccc13)C2=O | inactive | –
O=C(/C=C/c1ccc(-c2ccccc2[N+](=O)[O-])o1)c1ccc(F)cc1 | inactive | –
Cc1cc(NC(=O)CCSc2ccccc2)ccc1Br | inactive | –
O=C(Cn1c2ccccc2c(=O)c2ccccc21)N/N=C/c1ccc(N2CCCC2)c([N+](=O)[O-])c1 | inactive | –
Cc1occc1C(=O)NNC(=S)NCc1ccccc1 | inactive | –
CNC(=O)CC1C(=O)N(Cc2ccccc2)C(=S)N1NC(=O)c1cccc(F)c1 (stereo unspecified) | – | outcome: inactive
Cc1cc(C)c2nc3nc(C)c(C)cc3c(N)c2c1 | inactive | –
Cc1cc(N2CCN(C)CC2)nc2ccc(NC(=S)N3CCN(c4cccc(Cl)c4)CC3)cc12 | inactive | –
COc1ccc2c3c(cccc13)N(C)N=C2C | inactive | –
O=C(Nc1ccccc1N1CCOCC1)c1cccs1 | inactive | –
CN(CCO)c1cc(Sc2nc3ccccc3s2)c2nonc2c1[N+](=O)[O-] | inactive | –
Cc1ccc(S(=O)(=O)NC(=O)COc2ccccc2C)cc1 | inactive | –
Cc1cc(C)c2nc3nc(C)cc(C)c3c(N)c2c1 | inactive | –
CC1Nc2ccccc2C(=O)N1NS(=O)(=O)c1ccccc1 (stereo unspecified) | – | outcome: inactive
COc1ccccc1Oc1ccc2c(c1)C(=O)N(c1ccccc1)C2=O | inactive | –
O=C(O)CC1S/C(=N/N=C/C=C/c2ccccc2[N+](=O)[O-])NC1=O (stereo unspecified) | – | outcome: inactive
CN(C)S(=O)(=O)N(CC(=O)Nc1ccccc1C(F)(F)F)c1ccccc1 | inactive | –
Cc1cc(-c2csc(N)n2)c(C)n1CCc1ccccc1 | inactive | –
COc1ccc(C(=S)N2CCCCCC2)cc1 | inactive | –

SMILES | inhibition | other results
CCOc1ccccc1/C=N/NC(=O)CNC(=O)COc1ccccc1 | – | outcome: inactive
O=C(CCl)Nc1cccc2ncccc12 | inactive | –
CCOc1ccc(C2=Nn3c(nnc3-c3ccco3)SC2)cc1 | inactive | –
CN1CCN(c2ccccc2N)CC1 | inactive | –
O=c1c2c(n3nnnc3n1Cc1ccccc1)-c1ccccc1CC21CCCC1 | inactive | –
CCOC(=O)c1ccc(NC(=O)CSCCC(=O)O)cc1 | inactive | –
Cc1nn(-c2ccc(Cl)c(Cl)c2)c(C)c1C(=O)O | – | outcome: inactive
NC(=O)c1c(NC(=O)C2CCCO2)sc2c1CCCCC2 (stereo unspecified) | inactive | –
Cc1noc(C)c1COc1ccc(C(=O)Nc2cccnc2)cc1 | inactive | –
CN1CCS/C1=C/C=C1/SC(=S)N(Cc2ccccc2)C1=O | inactive | –
O=C(C1=NN(c2ccccc2)C2C(=O)N(c3ccccc3)C(=O)C12)c1ccccc1 (stereo unspecified) | inactive | –
CC(=O)OCCCNc1cc(Sc2nc3ccccc3s2)c2nonc2c1[N+](=O)[O-] | inactive | –
Cc1ccc(-c2cc(-c3ccccc3)c(C#N)c(N)n2)o1 | inactive | –
Cc1ccc(-c2c3c([nH]c(=S)c2C#N)CCCC3)o1 | inactive | –
Cc1ccc(-c2cc(-c3ccc(F)cc3)c(C#N)c(N)n2)o1 | inactive | –
C=CS(=O)(=O)c1sc(Cl)c(N2CCOCC2)c1[N+](=O)[O-] | – | outcome: inactive
COc1cc(C2Nc3cccc4cccc(c34)N2)cc(OC)c1O | inactive | –
C/C(=N/NC(=O)c1cc(O)c(O)c(O)c1)c1ccc([N+](=O)[O-])cc1 | – | outcome: inactive
COc1ccc(/C=C/C(=O)Nc2sc(Cc3ccccc3)c(C)c2C(N)=O)cc1 | inactive | –
CCCOc1ccc(-c2c(C(=O)N/N=C/c3ccc(OC)cc3)nnn2-c2nonc2N)cc1 | inactive | –
COC(=O)CCC(=O)Nc1sc(C)c(C)c1C(N)=O | inactive | –
O=C(/C=C/c1c(F)cccc1Cl)Nc1ccncc1 | inactive | –

SMILES | inhibition | other results
CC1N(C)c2cccc3cccc(c23)N1C | inactive | –
O=C(C1=NN[C@@H]2C(=O)N(c3ccccc3C(F)(F)F)C(=O)[C@H]12)c1ccc2ccccc2n1 | – | outcome: inactive
C=CCN1C(=O)/C(=C/c2ccsc2)SC1=S | – | outcome: inactive
CN(C)CCNC(=O)C(=O)C1C(=O)Nc2ccccc21 (stereo unspecified) | – | outcome: inactive
COc1ccc(NC(=O)C2=C(C)NC(=O)NC2c2cccc(OC)c2OC)c(OC)c1 (stereo unspecified) | inactive | –
COP(=O)(CC(=O)O)c1ccccc1 (stereo unspecified) | inactive | –
COc1ccc(N2C(=O)C(Cl)=C(Oc3cccc(OC)c3)C2=O)cc1 | inactive | –
CCN(CC)c1ccc(NC(=O)c2ccc(=O)[nH]c2)cc1S(=O)(=O)Nc1ccccc1OC | inactive | –
COC(=O)c1[nH]c2ccccc2c1NC(=O)c1ccccc1[N+](=O)[O-] | – | outcome: inactive
O=C(C1=C(Nc2ccccc2)c2ccccc2S(=O)(=O)N1)c1ccccc1 | inactive | –
O=C1c2ccccc2C(=O)N1CN(C(=O)COc1ccc(Cl)cc1Cl)c1cccc(F)c1 | inactive | –
C=CS(=O)c1sc(Cl)c(N2CCOCC2)c1[N+](=O)[O-] (stereo unspecified) | – | outcome: inactive
N=C1C(c2nc3ccccc3s2)=C(O)CN1Cc1ccccc1 | inactive | –
Cc1ccc(/C=C/C2=Cc3c(sc(NC(=O)CSc4n[nH]c(N)n4)c3C#N)C(C)(C)C2)o1 | inactive | –
Cc1nc(=S)c2ccccc2[nH]1 | inactive | –
CC1(C)CC(=O)C(C=NCCN2CCN(CCc3ccccc3)CC2)=C(O)C1 | inactive | –
Cc1ccc(-c2nc(N3CCOCC3)s[n+]2-c2ccccc2)cc1 | inactive | –
CNc1ccc(Br)cc(C(=O)/C=C/c2cccc(OC)c2OC)c1=O | inactive | –
